Values of other authors in patent US9987252B2, “Primary amines and derivitves thereof as modulators of the 5-HT2A serotonin receptor useful for the treatment of disorders related thereto” (Arena Pharmaceuticals, Inc., priority 2006, dated 2018).

System: diabetic rats
Conditions: 19.8% sciatic motor conduction deficit in diabetic rats

| Structure (SMILES) | correction of sciatic motor conduction deficit |
| --- | --- |
| O=CN1CCC(C(=O)NCCN2CCC(=C3c4ccccc4C=Cc4ccccc43)CC2)CC1 [AT-1015] | 82.6-99.7% |
| COc1cccc(CCc2ccccc2OCC(CN(C)C)OC(=O)CCC(=O)O)c1 (stereo not drawn) [sarpogrelate] | 82.6-99.7% |
| Cc1nc2sccn2c(=O)c1CCN1CCC(=C(c2ccc(F)cc2)c2ccc(F)cc2)CC1 [ritanserin] | 82.6-99.7% |
